Assays:
NIH 3T3 cells [1] = test: Live cell imaging (whole-cell staining); assay type: cell-based; conditions: live NIH 3T3 cells; for staining pattern compared under same conditions and concentrations: 100 nM, FIG. 3
Protocol: (§1) NIH 3T3 cell line was obtained from ATCC (Manassas, Va.) and cultured routinely using sterile technique. Cell culture media consisted of DMEM supplemented with 10% FBS and 4 mM GlutaMax (Life Technologies). Both live and fixed cell automated microscopy was performed on a Zeiss AxioObserver Z1 (Carl Zeiss MicroImaging Inc., Jena, Germany) with an EC Plan-Neofluar 10×/0.30 Ph 1 objective (Carl Zeiss, Jena, Germany), and a Coolsnap HQ2 camera (Photometrics, Tucson, Ariz.). All fluorescent microscopy images were collected using a HE38 filter set (Carl Zeiss, Jena, Germany), a Colibri.2 LED light source at 100% intensity, and an exposure time of either 200 ms or 1 second. Performance benchmarking of the fluorescence microscope was performed daily. All imaging was done on the same day on the same microscope to decrease variations in image intensities. ImageJ (National Institutes of Health, Bethesda, Md.) was used to create figures and to determine the mean fluorescence intensity of cells.
One day prior to imaging, NIH 3T3 cells were seeded at 10,000 cells per well in a 24-well plate (Corning Costar, TC-treated). After 24 hours of incubation (37° C., 5% CO2), the media was removed from the plate and cells were washed once with DPBS (Ca and Mg free, Life Sciences). A total of 320 μL of DPBS with glucose was added to each well, and then 40 μL of Hoechst 33342 (final concentration of 0.5 μg/mL) and 40 μL of 4 (final concentrations from 10 μM to 1 nM were tested, final DMSO concentration=0.1%) or CFSE (final concentrations from 10 μM to 1 nM were tested, final DMSO concentration=0.1%). […] Using ImageJ (National Institutes of Health, Bethesda, Md.) individual cell fluorescence intensities were measured by first segmenting the 8-bit tiff image for the 6/CFSE/FNHS channel by manually finding the minimum intensity below which object boundaries began to expand into the background (the built-in watershed algorithm was also utilized to separate touching objects). Using a histogram of object sizes, the minimal object area was chosen and pixel intensity for each of those objects were recorded. […]

[2] = Photophysical characterization (UV-Vis, fluorescence emission, relative quantum yield); assay type: physicochemical
Protocol: The UV-Vis and fluorescence emission spectra were recorded on a Synergy HT (BioTek Instruments, Inc.) multi-detection microplate reader equipped with a 10 W Xe flash light source for absorbance and a 20 W tungsten quartz halogen source for fluorescence. Relative quantum yields were determined using rhodamine 6G in ddH2O as a reference while keeping instrument temperature and parameters constant. Serial dilutions of the asymmetric fluorophore (6) were made from a methanol stock; therefore, all dilutions of asymmetric fluorophore (6) were kept at 10% MeOH in water. All fluorescent spectra were intensity corrected using NIST SRM 2941 (excitation wavelength at 427 nm, scan emission monochromator from 450 nm to 650 nm using a 1 nm increment).

[3] = Aqueous solubility of the fluorophore; assay type: physicochemical; conditions: pH independent, diluted to 0.1% DMSO from 100 mM DMSO stock
Protocol: The resulting fluorophore (6) was soluble in aqueous solutions (pH independent) up to […] and was diluted down to 0.1% DMSO from a 100 mM, 100% DMSO stock solution. […] Compound (6) has a sharp fluorescence peak and high quantum yield.

NIH 3T3 cells [4] = test: Basal cytotoxicity MTS assay (cell viability); assay type: cell-based; conditions: concentrations below 10 μM, 72-hour incubation, FIG. 6
Protocol: On day one, 5,000 cells per well were plated on a clear 96-well plate (Corning Costar, TC-treated) along with several blank wells with media only. The next day, the media was replaced with 180 μL of DPBS with glucose and 20 μL of 4 (final concentrations from 30 μM to 1 nM were tested, final DMSO concentration=0.1%) and incubated for 30 minutes. The dye solution was removed from the wells and 200 μL of fresh media was added to each well in the plate. The plate was then incubated (37° C., 5% CO2) for 72 hours. Then 40 μL of MTS (Promega, CellTiter 96® AQueous One Solution Cell Proliferation Assay) was added to each well and the plate was incubated (37° C., 5% CO2) for 4 hours. The absorbance of each well at 540 nm was measured on a Synergy HT plate reader (BioTek Instruments, Inc.). All assays were performed in triplicate on three separate plates.

NIH 3T3 cells [5] = test: Fixed cell imaging (whole-cell staining); assay type: cell-based; conditions: fixed NIH 3T3 cells, 1 μM
Protocol: as §1, with “All imaging was done on the same day on the same microscope to decrease variations in image intensities.” left out
One day prior to imaging, NIH 3T3 cells were seeded at 20,000 cells per well in a 24-well plate (Corning Costar, TC-treated). […] Using ImageJ (National Institutes of Health, Bethesda, Md.) individual cell fluorescence intensities were measured by first segmenting the 8-bit tiff image for the 4/CFSE/FNHS channel by manually finding the minimum intensity below which object boundaries began to expand into the background (the built-in watershed algorithm was also utilized to separate touching objects). […]

Compound	staining pattern compared under same conditions and concentrations (NIH 3T3 cells [1])	emission ([2]; 10% aqueous methanol, FIG. 1) [nm]	maximum excitation ([2]; 10% aqueous methanol, FIG. 1) [nm]	relative quantum yield ([2]; 10% aqueous methanol, reference rhodamine 6G in ddH2O)	maximum absorption ([2]; water (10% MeOH), FIG. 1 legend) [nm]	maximum excitation (excited at 500 nm) ([2]; water (10% MeOH), excited at 500 nm, FIG. 1 legend) [nm]	soluble in aqueous solutions [3]	staining of live cells (membrane crossing, localisation) (NIH 3T3 cells [1]; 30 minutes of staining, 1 μM, FIG. 2)	change in cell viability (NIH 3T3 cells [4])	fluorescence intensity relative to FNHS (quantitative image analysis) (NIH 3T3 cells [5]; FIG. 4)	brightness by visual appearance versus FNHS (NIH 3T3 cells [5]; same conditions, FIG. 5)
carboxyfluorescein succinimidyl ester [CFSE, reference compound]	more diffuse staining pattern										
CC1=C(CCC(=O)ON2C(=O)CCC2=O)C(C)=[N+]2C1=Cc1cccn1[B-]2(F)F [Compound 6, 4,4-difluoro-1,3-dimethyl-4-bora-3a,4a-diaza-s-indacene-2-propionic acid N-hydroxysuccinimide ester]	less diffuse staining	516	502	0.84	502	516	up to 1 μM	crossed the cell membrane and stained the cytoplasmic regions with some nuclear staining	no significant change in cell viability	three fold brighter than FNHS	appeared brighter than FNHS

Reference: patent US9951271B2, “Process for making an asymmetric fluorophore” (UNITED STATES OF AMERICA, AS REPRESENTED BY THE SECRETARY …, priority 2015, dated 2018)
